Experimental data as given in paper PMC6934184, “Selective DNA-PKcs inhibition extends the therapeutic index of localized radiotherapy and chemotherapy” (The Journal of Clinical Investigation, 2019).

Biological target: T1, KIT V654A (Homo sapiens, UniProt P10721, V654A)
T1 construct: purchased Thermo Fisher Scientific (Life Technologies) SelectScreen
Assay: SelectScreen LanthaScreen
Assay type: binding
Conditions: read-out: % displacement
Summary of the method: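 SelectScreen broad panel; activity (Z'LYTE, Adapta) plus binding formats. ATP: Km app for CSF1R Z'LYTE; 10 for CAMK1 Adapta. Readout = % per kinase.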

T1 sequence (P10721 26-976 V654A): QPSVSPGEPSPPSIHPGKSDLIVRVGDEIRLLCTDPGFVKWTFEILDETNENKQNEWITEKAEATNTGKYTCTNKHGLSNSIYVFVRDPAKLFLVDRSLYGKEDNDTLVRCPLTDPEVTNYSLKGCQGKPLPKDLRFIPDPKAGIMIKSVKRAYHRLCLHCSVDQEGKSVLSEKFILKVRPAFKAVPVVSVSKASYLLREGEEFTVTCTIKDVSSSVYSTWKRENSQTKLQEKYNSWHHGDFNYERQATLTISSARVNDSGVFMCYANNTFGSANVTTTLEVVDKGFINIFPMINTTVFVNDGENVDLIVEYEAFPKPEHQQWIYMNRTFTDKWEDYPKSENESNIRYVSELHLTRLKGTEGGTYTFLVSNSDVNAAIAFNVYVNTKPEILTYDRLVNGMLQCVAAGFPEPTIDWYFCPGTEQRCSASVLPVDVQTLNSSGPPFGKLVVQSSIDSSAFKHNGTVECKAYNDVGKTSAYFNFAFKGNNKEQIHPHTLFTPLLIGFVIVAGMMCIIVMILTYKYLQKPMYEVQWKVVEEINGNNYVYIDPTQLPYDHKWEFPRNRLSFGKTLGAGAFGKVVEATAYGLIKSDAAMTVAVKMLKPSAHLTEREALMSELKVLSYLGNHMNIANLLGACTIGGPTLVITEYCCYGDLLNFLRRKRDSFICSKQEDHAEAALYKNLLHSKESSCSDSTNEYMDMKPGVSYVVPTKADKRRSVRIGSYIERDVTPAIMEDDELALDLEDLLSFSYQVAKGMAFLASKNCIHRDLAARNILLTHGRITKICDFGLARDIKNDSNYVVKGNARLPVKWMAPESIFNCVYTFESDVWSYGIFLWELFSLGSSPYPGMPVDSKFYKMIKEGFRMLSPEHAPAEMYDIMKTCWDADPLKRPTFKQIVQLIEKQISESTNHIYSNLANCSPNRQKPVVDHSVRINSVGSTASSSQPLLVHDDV

## CN(C(=O)CN1CCOCC1)c1ccc2sc3c(-c4cccc5c(=O)cc(N6CC7CCC(C6)O7)oc45)cccc3c2c1 [NU5455]
  inhibition at 1 µM: 8.1%
